As usually defined, the EC50 is the concentration that produces a half-maximal response. The low end stands for a more potent agent, the high end for a less potent agent.

T1 sequence (P34972 whole entry): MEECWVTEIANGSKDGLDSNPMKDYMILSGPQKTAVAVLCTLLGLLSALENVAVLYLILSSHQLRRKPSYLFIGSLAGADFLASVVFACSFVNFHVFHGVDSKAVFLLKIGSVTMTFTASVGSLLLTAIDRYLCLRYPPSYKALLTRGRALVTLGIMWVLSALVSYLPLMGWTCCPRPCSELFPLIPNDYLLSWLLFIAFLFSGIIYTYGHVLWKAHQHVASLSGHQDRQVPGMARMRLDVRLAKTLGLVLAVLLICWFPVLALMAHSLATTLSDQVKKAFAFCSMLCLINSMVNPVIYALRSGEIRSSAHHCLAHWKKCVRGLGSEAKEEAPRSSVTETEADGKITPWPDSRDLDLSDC

This experiment addresses T1, human CB2R (Homo sapiens, UniProt P34972).
T1 construct: host or cells: CHO cells
The experiment is described as follows: CB2R mediated modulation of cAMP synthesis. In kind it is cell-based. How it is done: B. CB2R Mediated Modulation of cAMP Synthesis:
Compounds of the invention were evaluated for their CB2 agonist or inverse agonistic activity in accordance with the following experimental method.
CHO cells expressing human CB2R (Euroscreen) were plated at a density of 5000 cells per well in 384 well plates and incubated overnight at 37° C. After removing the media, the cells were treated with test compounds diluted in stimulation buffer containing 1 mM IBMX, 0.25% BSA and 10 uM Forskolin. The assay was incubated for 30 minutes at 37° C. Cells were lysed and the cAMP concentration was measured using DiscoverX-XS cAMP kit, following the manufacturer's protocol. In this setting, agonists will decrease forskolin induced production of cAMP while inverse agonists will further increase forskolin induced production of cAMP. EC50 of agonists were calculated as follows. The maximal amount of cAMP produced by forskolin compared to the level of cAMP inhibited by 1 uM CP55940 is defined as 100%. The EC50 value of each test compound was determined as the concentration at which 50% of the forskolin-stimulated cAMP synthesis was inhibited. Data was analyzed using a four-parameter logistic model. (Model 205 of XLfit 4.0).
The compound `CN(C(C)(C)C(=O)Nc1cc(C(C)(C)C)on1)S(=O)(=O)c1ccc(F)cc1` [Example 49, N-(5-tert-Butyl-isoxazol-3-yl)-2-[(4-fluoro-benzenesulfonyl)-methyl-amino]-2-methyl-propionamide] yielded an EC50 of 0.13 nM.

Regarding `CN(C(=O)c1ccc(Cl)cc1)C(C)(C)C(=O)Nc1cc(C(C)(C)C)on1` [Example 50, N-[1-(5-tert-Butyl-isoxazol-3-ylcarbamoyl)-1-methyl-ethyl]-4-chloro-N-methyl-benzamide], the EC50 is 124 nM. Next, `CN(C(=O)N1CCS(=O)(=O)CC1)C(C)(C)C(=O)Nc1cc(C(C)(C)C)on1` [Example 51, 1,1-Dioxo-1λ6-thiomorpholine-4-carboxylic acid [1-(5-tert-butyl-isoxazol-3-ylcarbamoyl)-1-methyl-ethyl]-methyl-amide]: 39 nM.

The values above are taken from patent US8957063B2, “Amine and ether compounds which modulate the CB2 receptor” (priority 2008, dated 2015).
